Laboratory results as given in US8956997B2, “Plant conditioner composition and method” (priority 2010, dated 2015).

Tests used:
plants = experiment: Plant size, produce and plant damage in indoor and outdoor gardens; format: in vivo; settings: more H202 and tea tree oil combinations added to the mix
Description: This product was tested in the Inventor's garden. At the time the garden was infested with spider mites and thrips. There were cob webs and major plant damage. The option was to destroy the garden. It seemed hopeless. […] Originally the solution was too strong, and it severely damaged the plants and killed every living thing on the plants as well as the plants. After going back and testing each of the ingredients separately (a few weeks at a time over the course of five years) the Inventor concluded how much of each ingredient to use per gallon. After that, the Inventor combined the sugars and started adding each ingredient while testing shelf life and refrigerator life of Dragon Juice 50. […] The concentrate variations have been tested in indoor and outdoor gardens. The results have been fantastic as all of the products produced have been getting outstanding customer approval for quality, and flavor. […] It also helps to keep the plant healthier from the stress of the concentrated oils. The salt (see below) is another last minute ingredient included after studying and talking with a state health inspector. The Inventor realized that the salt breaks down selenium in the water so the plant can use the nutrients and convert the use of sugars more effectively. As the H202 takes away microorganisms, the vitamins, and carbohydrates rebuild a healthy environment for the plants new growth. […]

thrips = experiment: Thrips kill test on isolated thrips and treated plants; format: in vivo
Description: Obvious testing by using a loop and magnifier concluded that the Dragon Juice 50 kills 100% of the spider mites, even after 6 weeks in the refrigerator. […] The Inventor tested more H202 and the tea tree oil combinations.

OO [H202, hydrogen peroxide]
plant damage (leaves) (plants): started burning the leaves
effect on thrips (thrips): killed the thrips
